Key:
Botrytis cinerea = assay: Activity against gray mold on bell pepper leaves caused by Botrytis cinerea; format: in vivo; conditions: individual active compound
Protocol: (§1) The active compounds were prepared separately or jointly as a stock solution comprising 0.25% by weight of active compound in acetone or DMSO. 1% by weight of the emulsifier Uniperol® EL (wetting agent having emulsifying and dispersing action based on ethoxylated alkylphenols) was added to this solution, and the mixture was diluted with water to the desired concentration.
Bell pepper seedlings of the cultivar “Neusiedler Ideal Elite” were, after 4-5 leaves were well developed, sprayed to runoff point with an aqueous suspension having the concentration of active compound stated below. The next day, the treated plants were inoculated with a spore suspension of Botrytis cinerea which contained 1.7×10^6 spores/ml in a 2% strength aqueous biomalt solution. The test plants were then placed in a climatized chamber at 22-24° C. and high atmospheric humidity. After 5 days, the extent of the fungal infection on the leaves could be determined visually in %.
(§2) Evaluation was carried out by determining the infected leaf areas in percent. These percentages are converted into efficacies.
(§3) The efficacy (E) is calculated as follows using Abbot's formula: E=(1−α/β)·100 α corresponds to the fungal infection of the treated plants in % and • β corresponds to the fungal infection of the untreated (control) plants in %
(§4) An efficacy of 0 means that the infection level of the treated plants corresponds to that of the untreated control plants; an efficacy of 100 means that the treated plants were not infected.
(§5) The expected efficacies of the active compound mixtures are determined using Colby's formula [S. R. Colby, Weeds 15, 20-22 (1967)] and compared with the observed efficacies.
(§6) Colby's formula: E=x+y−x·y/100 • E expected efficacy, expressed in % of the untreated control, when using the mixture of the active compounds A and B at the concentrations a and b • x efficacy, expressed in % of the untreated control, when using active compound A at a concentration of a
(§7) y efficacy, expressed in % of the untreated control, when using active compound B at a concentration of b

Alternaria solani = assay: Activity against early blight of tomato caused by Alternaria solani; format: in vivo; conditions: individual active compound, 5 days after infection
Protocol: as §1, §2, §3, §4, §5, §6, §7
Leaves of potted plants of the cultivar “Groβe Fleischtomate St. Pierre” were sprayed to runoff point with an aqueous suspension having the concentration of active compounds stated below. The next day, the leaves were infected with an aqueous zoospore suspension of Alternaria solani in 2% biomalt solution having a density of 0.17×10^6 spores/ml. The plants were then placed in a water-vapor-saturated chamber at temperatures of between 20 and 22° C. After 5 days, the infection on the leaves of the untreated, but infected control plants had developed to such an extent that the infection could be determined visually in %.

[1] = concentration in the spray liquor 0.25, 5 days after inoculation
[2] = concentration in the spray liquor 1, 5 days after inoculation
[3] = concentration in the spray liquor 4, 5 days after inoculation

Compound | Efficacy in % of the untreated control (Botrytis cinerea; [1]) [%] | Efficacy in % of the untreated control (Botrytis cinerea; [2]) [%] | Efficacy in % of the untreated control (Botrytis cinerea; [3]) [%] | Efficacy in % of the untreated control (Botrytis cinerea; concentration in the spray liquor 16, 5 days after inoculation) [%] | Efficacy in % of the untreated control (Alternaria solani; 0.25 ppm in the spray liquor) [%] | Efficacy in % of the untreated control (Alternaria solani; 1 ppm in the spray liquor) [%] | Efficacy in % of the untreated control (Alternaria solani; 4 ppm in the spray liquor) [%]
N#Cc1sc2c(=O)c3ccccc3c(=O)c=2sc1C#N [I, dithianon] | 0 | 0 | 0 | 0 | 0 | 0 | 0
CC1(C)CCC(Cc2ccc(Cl)cc2)C1(O)Cn1cncn1 (centres unmarked) [II-1, metconazole] | 0 | 49 |  |  | 2 | 63 | 
Fc1ccc(C2(Cn3cncn3)OC2c2ccccc2Cl)cc1 (centres unmarked) [II-2, epoxiconazole] | 9 | 9 |  |  | 63 | 75 | 
CC(C)(C)C(O)(CCc1ccc(Cl)cc1)Cn1cncn1 (centres unmarked) [II-4, tebuconazole] | 0 | 0 | 0 |  | 0 | 63 | 

Reference: patent US20050245550A1, “Fungicidal mixtures based on the dithianon” (priority 2002, published 2005)
